Our source for the EC50 values is paper PMC6648297 (ACS Omega, 2019).

The target of the experiment is Pin1 (Homo sapiens, UniProt Q13526). The experiment in a line: SensoLyte Green fluorimetric PPIase activity assay, dose-response. Type of experiment: biochemical.
Pin1, sequence (Q13526 whole entry): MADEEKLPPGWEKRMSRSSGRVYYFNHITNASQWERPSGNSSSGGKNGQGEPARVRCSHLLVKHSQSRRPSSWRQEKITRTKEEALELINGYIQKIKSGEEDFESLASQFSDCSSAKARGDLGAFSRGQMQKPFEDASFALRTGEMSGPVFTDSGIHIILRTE

`CCOC(=O)CN1C(=O)c2ccc3c4c(ccc(c24)C1=O)C(=O)N(CC(=O)OCC)C3=O` [PiB] yielded an EC50 of roughly 10 µM.
